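In this assay, cells in 96-well plates receive the compound at five concentrations for 48 hours. Endpoints are linearly interpolated between the surrounding concentrations. GI50 marks 50% less growth. TGI: total growth inhibition.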 Where a SMILES comes first, the peptide text is derived from it. [ ]: non-standard residue; d: D form. ξ: configuration not given here. Pentanoyl(2-O,4-OH,5-Cl) = O=C(O)C(O)CC(O)CCl; Ile(3ξ) = CCC(C)[C@H](N)C(=O)O; NMeV = CN[C@H](C(=O)O)C(C)C; NMeA = CN[C@@H](C)C(=O)O; βAla = NCCC(=O)O Some results are limits rather than exact numbers.

Test systems include MDA-MB-231 breast; RXF 393 renal; COLO 205 colon; HCT-15 colon; LOX IMVI melanoma; EKVX NSCLC; HOP-92 NSCLC; K-562 leukemia; SF-268 CNS; RPMI-8226 leukemia.
What all share (test): NCI anticancer screen, dose series, 48 h

Consider `Clc1ccc(NCNC2Nc3ccccc3N2)cc1Cl`, for which the TGI with MDA-MB-231 breast, with RXF 393 renal, with COLO 205 colon, in the assay with HCT-15 colon, in the assay on LOX IMVI melanoma and with EKVX NSCLC was greater than 100 µM throughout. Also, the TGI with HOP-92 NSCLC, in the assay with K-562 leukemia, in the assay with SF-268 CNS and in the assay with RPMI-8226 leukemia was greater than 100 µM in each case.

As to `O=c1[nH]c(=O)n(Cc2ccc(C34CC5CC(CC(C5)C3)C4)c(O)c2)cc1F`, the GI50 was 14.3 µM in the assay with MDA-MB-231 breast; 5280 nM with RXF 393 renal; 17.2 µM in the assay on COLO 205 colon; 10.2 µM in the assay with HCT-15 colon; 13400 nM with LOX IMVI melanoma; 16.4 µM with EKVX NSCLC. In addition, the GI50 is 13500 nM in the assay on HOP-92 NSCLC, 3.49 µM in the assay with K-562 leukemia, 18.5 µM with SF-268 CNS and 5.74 µM with RPMI-8226 leukemia. Further, the TGI in the assay with MDA-MB-231 breast was found to be 28.9 µM; with RXF 393 renal, 18.3 µM; with COLO 205 colon it was 37.9 µM; in the assay on HCT-15 colon, 22.3 µM; in the assay with LOX IMVI melanoma, 27.2 µM; in the assay on EKVX NSCLC it was 35.7 µM. The TGI came to 26.4 µM with HOP-92 NSCLC, 18.2 µM in the assay with K-562 leukemia, 65.6 µM in the assay with SF-268 CNS and 23.8 µM in the assay with RPMI-8226 leukemia.

Turning to `CCC(C)[C@@H]1NC(=O)[C@@H]2CCCN2C(=O)C(CC(O)CCl)OC(=O)CCNC(=O)[C@H](C)N(C)C(=O)[C@H](C(C)C)N(C)C1=O` (stereo partly drawn) (cyclo([Ile(3ξ)][NMeV][NMeA][βAla][Pentanoyl(2-O,4-OH,5-Cl)]P)), the TGI was greater than 100 µM with MDA-MB-231 breast; greater than 100 µM with RXF 393 renal; greater than 31.6 µM in the assay on COLO 205 colon; greater than 100 µM in the assay with HCT-15 colon; greater than 100 µM in the assay with EKVX NSCLC; 8.13 µM with HOP-92 NSCLC. In addition, the TGI in the assay on K-562 leukemia, with SF-268 CNS and in the assay with RPMI-8226 leukemia was greater than 100 µM in each case.

Take `CCN(CC)CCN1C(=O)C2C3C(C)=CC(OC(C)=O)(CC3C)C2C1=O` (stereo not drawn): the GI50 in the assay on MDA-MB-231 breast was greater than 100 µM; with RXF 393 renal, greater than 100000 nM; in the assay with COLO 205 colon, greater than 100 µM; with HCT-15 colon it was greater than 100 µM; in the assay on LOX IMVI melanoma, greater than 100000 nM; with EKVX NSCLC it was greater than 100 µM. The figures for the GI50 in the assay with HOP-92 NSCLC, in the assay with K-562 leukemia and in the assay on SF-268 CNS were greater than 100000 nM, greater than 100 µM and greater than 100 µM, respectively. The TGI in the assay with MDA-MB-231 breast, in the assay with RXF 393 renal, in the assay with COLO 205 colon, in the assay with HCT-15 colon, in the assay with LOX IMVI melanoma and in the assay on EKVX NSCLC was greater than 100 µM each time. Further, the TGI with HOP-92 NSCLC, in the assay with K-562 leukemia and in the assay with SF-268 CNS was greater than 100 µM each time.

In the case of `Cc1cc[c]([Sb]2[O]C(CO)C(C(O)C(O)C(=O)O)[O]2)cc1` (stereo not drawn), the GI50 in the assay on MDA-MB-231 breast was 78 µM; in the assay on RXF 393 renal, 28200 nM; with HCT-15 colon it was greater than 100 µM; in the assay on LOX IMVI melanoma it was 39900 nM; in the assay on EKVX NSCLC it was 41 µM; with HOP-92 NSCLC it was greater than 100000 nM. The GI50 in the assay with K-562 leukemia was 46.5 µM; with SF-268 CNS, greater than 100 µM. The TGI is greater than 100 µM with MDA-MB-231 breast; 84.7 µM in the assay on RXF 393 renal; greater than 100 µM in the assay with HCT-15 colon; greater than 100 µM in the assay on LOX IMVI melanoma; greater than 100 µM in the assay on EKVX NSCLC; greater than 100 µM with HOP-92 NSCLC. The TGI with K-562 leukemia and in the assay on SF-268 CNS was greater than 100 µM throughout.

Consider `CN1CCN(c2cc(F)c(NC3=C(Cl)C(=O)c4ncccc4C3=O)c(F)c2)CC1`, for which the GI50 with MDA-MB-231 breast is 1.94 µM; with RXF 393 renal, 1640 nM; with COLO 205 colon it was 2 µM; in the assay on HCT-15 colon it was 1.53 µM; in the assay with LOX IMVI melanoma, 1350 nM; with EKVX NSCLC, 1.7 µM. Moreover, the GI50 in the assay on HOP-92 NSCLC is 1690 nM; in the assay with K-562 leukemia, 0.651 µM; with SF-268 CNS it was 1.7 µM. Moreover, the TGI with MDA-MB-231 breast came out at 3.87 µM; in the assay with RXF 393 renal it was 3.1 µM; in the assay on COLO 205 colon, 4.06 µM; in the assay on HCT-15 colon, 3.06 µM; in the assay on LOX IMVI melanoma, 2.84 µM; in the assay with EKVX NSCLC, 3.19 µM. In addition, the TGI in the assay on HOP-92 NSCLC was 3.22 µM; in the assay with K-562 leukemia it was greater than 100 µM; with SF-268 CNS, 3.44 µM.

In the case of `COc1ccc(CC(C)NCC(O)c2ccc(O)c(NC=O)c2)cc1` (stereo not drawn), the TGI in the assay on MDA-MB-231 breast, with RXF 393 renal, in the assay with COLO 205 colon, with HCT-15 colon, in the assay with LOX IMVI melanoma and with EKVX NSCLC was greater than 100 µM in each case. For the same molecule, the TGI with K-562 leukemia, with SF-268 CNS and with RPMI-8226 leukemia was greater than 100 µM each time.

`Cc1ccc(/C=C/C(=O)c2ccc(F)cc2)s1`: the GI50 with MDA-MB-231 breast is 10.2 µM; with RXF 393 renal it was 1820 nM; in the assay on COLO 205 colon, 6.07 µM; with HCT-15 colon, 4.14 µM; with LOX IMVI melanoma, 1870 nM; in the assay on EKVX NSCLC it was 5.83 µM. Moreover, the results for the GI50 in the assay with HOP-92 NSCLC and with SF-268 CNS were 1600 nM and 2.19 µM, respectively. Further, the TGI was found to be 24 µM with MDA-MB-231 breast; 4.04 µM with RXF 393 renal; 19.9 µM in the assay with COLO 205 colon; 18.4 µM with HCT-15 colon; 3.59 µM in the assay on LOX IMVI melanoma; 20.3 µM in the assay on EKVX NSCLC. Besides, the results for the TGI in the assay on HOP-92 NSCLC and in the assay with SF-268 CNS were 3.4 µM and 4.91 µM, respectively.

Take `C=C1C(=O)O[C@@H]2C[C@@]3(C)CCC[C@H](C)C3=C[C@H]12` (tested in a mixture with another compound): the TGI is 6.72 µM in the assay with MDA-MB-231 breast; 4.07 µM with RXF 393 renal; 3.18 µM in the assay with COLO 205 colon; 4.39 µM in the assay with HCT-15 colon; 11.7 µM with LOX IMVI melanoma; 15 µM in the assay on EKVX NSCLC. Further, the TGI in the assay on HOP-92 NSCLC was 3.48 µM; in the assay with SF-268 CNS it was 7.2 µM; in the assay with RPMI-8226 leukemia, 4.05 µM.

As to `Oc1ccc(CCNc2nc3ccccc3c3[nH]c4ccccc4c23)cc1O`, the GI50 in the assay on MDA-MB-231 breast is 2.98 µM; in the assay on RXF 393 renal it was 1910 nM; in the assay with COLO 205 colon it was 2.27 µM; in the assay on HCT-15 colon, 1.9 µM; in the assay on LOX IMVI melanoma, 1770 nM; in the assay on EKVX NSCLC, 8.99 µM. Moreover, the GI50 in the assay with HOP-92 NSCLC is 1310 nM; with K-562 leukemia, 1.83 µM; in the assay with SF-268 CNS, 5.7 µM. For the same molecule, the TGI was 11.8 µM in the assay on MDA-MB-231 breast; 3.59 µM in the assay with RXF 393 renal; 6.8 µM in the assay with COLO 205 colon; 3.95 µM in the assay with HCT-15 colon; 3.28 µM with LOX IMVI melanoma; 37.4 µM with EKVX NSCLC. The values for the TGI in the assay on HOP-92 NSCLC, with K-562 leukemia and in the assay on SF-268 CNS were 2.95 µM, 4.13 µM and 30.1 µM, respectively.
